Assay results from US7026510B2, “Quaternary ammonium salts of omega-aminoalkylamides of r-2-aryl-propionic acids and pharmaceutical compositions containing them” (Dompé S.p.A., priority 2001, dated 2006).

Test system: C5a-induced chemotaxis of PMN
Test: Inhibition of C5a-induced chemotaxis of human PMNs (microchamber)
Type: cell-based
Conditions: Homo sapiens, 1 h, compound C = 10^−6 M, C5a 10^−9 M, 60 min at 37° C.
Protocol: The compounds of the invention of formula (I) were evaluated in vitro for their ability to inhibit chemotaxis of polymorphonucleate leukocytes (hereinafter referred to as PMNs) and monocytes induced by the fractions of the complement C5a and C5a-desArg. For this purpose, to isolate the PMNs from heparinized human blood, taken from healthy adult volunteers, mononucleates were removed by means of sedimentation on dextran (according to the procedure disclosed by W. J. Ming et al., J. Immunol., 138, 1469, 1987) and red blood cells by a hypotonic solution. The cell vitality was calculated by exclusion with Trypan blue, whilst the ratio of the circulating polymorphonucleates was estimated on the cytocentrifugate after staining with Diff Quick.
Human recombinant fractions C5a and C5a-desArg (Sigma) were used as stimulating agents in the chemotaxis experiments, giving practically identical results.
The lyophilized C5a was dissolved in a volume of HBSS containing 0.2% bovin serum albumin BSA so thus to obtain a stock solution having a concentration of 10^−5 M to be diluted in HBSS to a concentration of 10^−9 M, for the chemotaxis assays.
In the chemotaxis experiments, the PMNs were incubated with the compounds of the invention of formula (I) for 15′ at 37° C. in an atmosphere containing 5% CO2.
The chemotactic activity of the C5a was evaluated on human circulating polymorphonucleates (PMNs) resuspended in HBSS at a concentration of 1.5×10^6 PMNs per mL.
During the chemotaxis assay (according to W. Falket et al., J. Immunol. Methods, 33, 239, 1980) PVP-free filters with a porosity of 5 μm and microchambers suitable for replication were used.
The compounds of the invention in formula (I) were evaluated at a concentration ranging between 10^−6 and 10^−10 M; for this purpose they were added, at the same concentration, both to the lower pores and the upper pores of the microchamber. The wells in the lower part contain the solution of C5a or the simple carrier, those in the upper part contain the suspension of PMNs.
Inhibition of C5a-induced chemotactic activity by the individual compounds of the invention of formula (I) was evaluated by incubating the microchamber for the chemotaxis for 60 min at 37° C. in an atmosphere containing 5% CO2.
By way of example, the inhibition data of the chemotaxis of PMN (C=10^−6 M) of some representative compounds of the invention are reported in the following table: […]

Compound	inhibition at 1 µM
C[C@@H](C(=O)NCCC[N+](C)(C)C)c1ccccc1Nc1c(Cl)cccc1Cl [(R)-{3-{2-[2-(2,6-dichlorophenylamino)-phenyl]-propionylamino}-propyl)-trimethylammonium iodide]	62 ± 3%

Same assay, conditions: compound C = 10^−6 M, C5a 10^−9 M, 60 min at 37° C.

Compound	% INHIBITION (C = 10^−6 M)
CC(C)Cc1ccc([C@@H](C)C(=O)NCCC[N+]2(C)CCCCC2)cc1.[I-] [R(−)-{3-[2-(4′-isobutylphenyl)-propionylamino]-propyl}-1-methyl-piperidinium iodide]	24 ± 4%
CC(C)Cc1ccc([C@@H](C)C(=O)NCCC[N+](C)(C)Cc2ccccc2)cc1.[I-] [R(−)-{3-[2-(4′-isobutylphenyl)-propionylamino]-propyl}-(N-benzyl)-N,N-dimethylammonium iodide]	22 ± 4%
CC(C)Cc1ccc([C@@H](C)C(=O)NCCC[N+](C)(C)CC2CCCCC2)cc1.CS(=O)(=O)[O-] [R(−)-{3-[2-(4′-isobutylphenyl)-propionylamino]-propyl}-N-cyclohexylmethyl-N,N-dimethyl-ammonium metaneosulfonate]	57 ± 4%
CC(C)Cc1ccc([C@@H](C)C(=O)NCCC[N+](C)(C)C)cc1.[I-] [R(−)-{3-[2-(4′-isobutylphenyl)-propionylamino]-propyl}-trimetilammonium iodide]	53 ± 6%
R(−)-2-[(4′-isobutylphenyl)-propionylamino]-1,1-dimethylpiperidinium iodide	18 ± 9%
